Experiments:
Format in all cases: binding
AurA = target: T1, AurA (Homo sapiens, UniProt O14965); experiment: Probe-based (AX9989) kinase profiling in Jurkat lysate: AurA; settings: read-out: Kinase inhibition % at indicated screening concentration: AurA; for inhibition at 1 µM: screening concentration 1.0 μM
T1 construct: screened for activity against several kinases in Jurkat cells; endogenous in cells; host or cells: Jurkat cell lysate
T1 sequence (O14965 1-403): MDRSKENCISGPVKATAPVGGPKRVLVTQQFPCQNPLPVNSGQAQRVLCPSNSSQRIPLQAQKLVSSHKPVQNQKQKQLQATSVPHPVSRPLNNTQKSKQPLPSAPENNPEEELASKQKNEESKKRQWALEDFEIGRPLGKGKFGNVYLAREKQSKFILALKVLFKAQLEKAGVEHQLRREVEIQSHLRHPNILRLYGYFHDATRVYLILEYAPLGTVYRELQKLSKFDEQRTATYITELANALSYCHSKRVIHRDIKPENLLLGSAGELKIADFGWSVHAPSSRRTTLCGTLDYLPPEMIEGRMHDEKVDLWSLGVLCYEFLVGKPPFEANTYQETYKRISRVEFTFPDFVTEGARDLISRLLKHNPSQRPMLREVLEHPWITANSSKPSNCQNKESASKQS
Procedure, shortened: (§1)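 Gel-filtered Jurkat lysate (HEPES pH 7.5, 20 mM MnCl2, 5 mg/ml) was pre-incubated 15 min with compound at room temperature, then labelled with 5 μM acyl-phosphate ATP probe AX9989. Tryptic probe-labelled active-site peptides were streptavidin-captured and quantified by LC/MS. Percent inhibition reflected the decrease in labelled-peptide intensity versus no compound.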

[1] = target: T2, BRD4 bromodomain domain I [BRD4(1)] (Homo sapiens, UniProt O60885); experiment: BRD4 bromodomain domain 1 inhibition assay (TR-FRET); settings: screening concentration 10 μM
T2 construct: BRD4 bromodomain domain I [BRD4(1)]; purchased Cayman Chemicals
Method: The inhibitory activity of test compounds on the bromodomain, BRD4 bromodomain domain I [BRD4(1)], were determined via TR-FRET after a slight modification of the manufacturer's protocol (Cayman Chemicals, Ann Arbor, Mich.). Briefly, compounds were diluted to a 20× ([…]) concentration in DMSO. 100 nL of 20× compounds were then dry stamped into triplicate wells of black, low volume 384 well plates (Aurora Biotechnologies, Carlsbad, Calif.) using the Mosquito liquid handler (TPP Labtech, Melbourn, UK). 20× compounds were then diluted to a 4× (40 μM) concentration in Assay Buffer to result in 2% DMSO content. […] JQ1 at 10 μM or 0.5% DMSO final concentrations were used as the positive and negative controls, respectively, to set the assay window. The fluorescence was read in a time-resolved format on the Biotec Synergy 2 plate reader by exciting the signal at 340 nm and reading emissions at 620 and 670, using a 100 μs delay and 200 μs read window. […] Briefly, TR-FRET ratio values were normalized to the average TR-FRET ratio value given by 10 μM JQ1. […]

ACK = target: T3, ACK (Homo sapiens, UniProt Q07912); experiment: Probe-based (AX9989) kinase profiling in Jurkat lysate: ACK; settings: read-out: Kinase inhibition % at indicated screening concentration: ACK; for inhibition at 1 µM: screening concentration 1.0 μM
T3 construct: screened for activity against several kinases in Jurkat cells; endogenous in cells; host or cells: Jurkat cell lysate
Procedure, shortened: as §1

ABL or ARG = experiment: Probe-based (AX9989) kinase profiling in Jurkat lysate: ABL or ARG
Procedure, shortened: as §1

AurB or AurC = experiment: Probe-based (AX9989) kinase profiling in Jurkat lysate: AurB or AurC
Procedure, shortened: as §1

TAO2 = target: T4, TAO2 (Homo sapiens, UniProt Q9UL54); experiment: Probe-based (AX9989) kinase profiling in Jurkat lysate: TAO2; settings: read-out: Kinase inhibition % at indicated screening concentration: TAO2; for inhibition at 1 µM: screening concentration 1.0 μM
T4 construct: screened for activity against several kinases in Jurkat cells; endogenous in cells; host or cells: Jurkat cell lysate
T4 sequence (Q9UL54 1-1235): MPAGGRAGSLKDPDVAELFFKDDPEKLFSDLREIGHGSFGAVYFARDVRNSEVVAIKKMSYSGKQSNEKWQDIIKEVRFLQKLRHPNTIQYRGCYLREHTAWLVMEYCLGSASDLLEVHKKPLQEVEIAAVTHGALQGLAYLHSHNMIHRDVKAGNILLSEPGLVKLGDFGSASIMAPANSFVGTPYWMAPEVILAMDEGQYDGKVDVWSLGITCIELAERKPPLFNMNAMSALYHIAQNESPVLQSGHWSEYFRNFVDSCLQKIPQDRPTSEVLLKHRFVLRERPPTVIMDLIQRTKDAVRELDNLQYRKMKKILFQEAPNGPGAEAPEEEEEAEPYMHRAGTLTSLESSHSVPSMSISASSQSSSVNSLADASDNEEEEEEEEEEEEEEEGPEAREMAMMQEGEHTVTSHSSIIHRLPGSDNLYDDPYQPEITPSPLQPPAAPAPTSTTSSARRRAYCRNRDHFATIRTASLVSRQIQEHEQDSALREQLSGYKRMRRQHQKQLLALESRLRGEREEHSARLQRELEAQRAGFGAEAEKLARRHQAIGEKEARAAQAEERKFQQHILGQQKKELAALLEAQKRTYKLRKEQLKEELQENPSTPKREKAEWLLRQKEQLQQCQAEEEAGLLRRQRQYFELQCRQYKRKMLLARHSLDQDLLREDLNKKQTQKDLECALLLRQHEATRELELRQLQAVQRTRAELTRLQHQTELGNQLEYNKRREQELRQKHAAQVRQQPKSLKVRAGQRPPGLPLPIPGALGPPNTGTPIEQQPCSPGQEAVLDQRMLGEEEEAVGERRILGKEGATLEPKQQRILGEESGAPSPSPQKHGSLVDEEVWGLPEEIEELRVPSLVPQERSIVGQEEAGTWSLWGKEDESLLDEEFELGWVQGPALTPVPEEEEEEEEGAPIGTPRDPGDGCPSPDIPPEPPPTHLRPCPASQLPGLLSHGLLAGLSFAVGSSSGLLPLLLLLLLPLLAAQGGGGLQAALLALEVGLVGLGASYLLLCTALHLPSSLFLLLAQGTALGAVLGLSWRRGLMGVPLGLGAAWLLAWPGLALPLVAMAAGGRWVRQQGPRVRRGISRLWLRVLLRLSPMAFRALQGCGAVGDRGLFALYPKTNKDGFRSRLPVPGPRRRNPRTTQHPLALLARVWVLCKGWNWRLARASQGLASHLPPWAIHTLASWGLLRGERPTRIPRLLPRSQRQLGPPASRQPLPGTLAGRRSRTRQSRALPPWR
Procedure, shortened: as §1

ERK5 = target: T5, ERK5 (Homo sapiens, UniProt Q13164); experiment: Probe-based (AX9989 acyl phosphate ATP probe) kinase profiling in Jurkat lysate: ERK5; settings: for IC50: calculated from percent inhibition of AX9989 labeling and the screening concentration, Jurkat lysate; for inhibition at 1 µM: screening concentration 1.0 μM
T5 construct: screened for activity against several kinases in Jurkat cells; endogenous in cells; host or cells: Jurkat cell lysate
Procedure, shortened: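 Gel-filtered Jurkat lysate (5 mg/ml, 20 mM MnCl2) preincubated 15 min at room temperature with compound, then labelled with 5 μM AX9989 acyl phosphate ATP probe. Probe-labelled ERK5 active-site peptides quantified by LC/MS after trypsin digestion and streptavidin capture; IC50 calculated from percent inhibition at the screening concentration.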

AMPKa1 or AMPKa2 = experiment: Probe-based (AX9989) kinase profiling in Jurkat lysate: AMPKa1 or AMPKa2
Procedure, shortened: as §1

JAK1 = target: T6, JAK1 (Homo sapiens, UniProt P23458); experiment: Probe-based (AX9989) kinase profiling in Jurkat lysate: JAK1; settings: read-out: Kinase inhibition % at indicated screening concentration: JAK1; for inhibition at 1 µM: screening concentration 1.0 μM
T6 construct: screened for activity against several kinases in Jurkat cells; endogenous in cells; host or cells: Jurkat cell lysate
Procedure, shortened: as §1

[2] = read-out: Kinase inhibition % at indicated screening concentration: ERK5

T6 sequence (P23458 whole entry): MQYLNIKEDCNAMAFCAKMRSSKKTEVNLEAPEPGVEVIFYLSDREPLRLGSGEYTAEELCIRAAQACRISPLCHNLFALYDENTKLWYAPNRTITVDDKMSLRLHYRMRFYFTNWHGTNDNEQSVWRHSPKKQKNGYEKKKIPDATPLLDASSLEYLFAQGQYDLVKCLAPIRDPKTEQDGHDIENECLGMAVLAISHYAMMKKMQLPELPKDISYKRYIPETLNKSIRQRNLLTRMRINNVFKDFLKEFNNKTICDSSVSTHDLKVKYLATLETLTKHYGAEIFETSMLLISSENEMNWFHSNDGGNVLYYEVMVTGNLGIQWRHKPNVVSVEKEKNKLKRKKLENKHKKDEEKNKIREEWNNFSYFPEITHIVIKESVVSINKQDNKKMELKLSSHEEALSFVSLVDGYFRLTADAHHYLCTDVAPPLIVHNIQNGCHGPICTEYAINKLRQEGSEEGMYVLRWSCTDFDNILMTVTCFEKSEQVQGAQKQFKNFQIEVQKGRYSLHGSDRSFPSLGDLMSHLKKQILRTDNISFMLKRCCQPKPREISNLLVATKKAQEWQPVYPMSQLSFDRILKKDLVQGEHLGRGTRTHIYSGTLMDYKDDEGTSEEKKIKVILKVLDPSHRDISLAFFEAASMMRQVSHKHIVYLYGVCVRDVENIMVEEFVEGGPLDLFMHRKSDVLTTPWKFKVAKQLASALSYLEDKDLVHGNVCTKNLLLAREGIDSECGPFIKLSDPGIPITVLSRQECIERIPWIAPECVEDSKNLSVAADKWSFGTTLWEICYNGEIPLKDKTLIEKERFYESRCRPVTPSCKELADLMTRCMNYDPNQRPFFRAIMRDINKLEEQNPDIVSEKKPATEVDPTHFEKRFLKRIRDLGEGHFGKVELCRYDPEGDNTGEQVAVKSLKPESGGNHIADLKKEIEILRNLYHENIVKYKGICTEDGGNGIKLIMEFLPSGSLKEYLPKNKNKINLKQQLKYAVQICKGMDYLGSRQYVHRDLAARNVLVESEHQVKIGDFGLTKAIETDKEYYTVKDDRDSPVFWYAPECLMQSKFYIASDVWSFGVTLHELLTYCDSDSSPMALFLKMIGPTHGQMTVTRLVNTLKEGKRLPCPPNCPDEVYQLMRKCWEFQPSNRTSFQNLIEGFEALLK
T5 sequence (Q13164 whole entry): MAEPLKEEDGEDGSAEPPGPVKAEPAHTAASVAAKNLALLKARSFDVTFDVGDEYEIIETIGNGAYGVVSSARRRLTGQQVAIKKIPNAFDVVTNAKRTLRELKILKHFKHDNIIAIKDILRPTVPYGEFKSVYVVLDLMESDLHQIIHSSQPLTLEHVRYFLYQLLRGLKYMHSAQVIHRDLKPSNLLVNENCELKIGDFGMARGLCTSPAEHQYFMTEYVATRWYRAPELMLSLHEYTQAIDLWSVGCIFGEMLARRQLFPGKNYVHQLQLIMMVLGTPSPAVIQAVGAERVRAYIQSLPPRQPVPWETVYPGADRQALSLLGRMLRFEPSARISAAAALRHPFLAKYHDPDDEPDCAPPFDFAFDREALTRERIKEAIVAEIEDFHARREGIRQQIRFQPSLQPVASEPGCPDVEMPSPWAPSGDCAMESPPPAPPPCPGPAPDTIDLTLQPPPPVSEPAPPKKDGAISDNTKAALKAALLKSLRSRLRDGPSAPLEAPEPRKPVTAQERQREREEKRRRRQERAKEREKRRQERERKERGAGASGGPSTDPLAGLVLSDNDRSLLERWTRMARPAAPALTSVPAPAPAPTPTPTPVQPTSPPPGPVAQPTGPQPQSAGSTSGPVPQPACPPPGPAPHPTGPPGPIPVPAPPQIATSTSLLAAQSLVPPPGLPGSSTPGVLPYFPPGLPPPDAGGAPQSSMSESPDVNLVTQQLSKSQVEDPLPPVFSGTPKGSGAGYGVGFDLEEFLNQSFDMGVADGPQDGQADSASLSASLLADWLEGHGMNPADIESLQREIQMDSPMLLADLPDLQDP
T3 sequence (Q07912 whole entry): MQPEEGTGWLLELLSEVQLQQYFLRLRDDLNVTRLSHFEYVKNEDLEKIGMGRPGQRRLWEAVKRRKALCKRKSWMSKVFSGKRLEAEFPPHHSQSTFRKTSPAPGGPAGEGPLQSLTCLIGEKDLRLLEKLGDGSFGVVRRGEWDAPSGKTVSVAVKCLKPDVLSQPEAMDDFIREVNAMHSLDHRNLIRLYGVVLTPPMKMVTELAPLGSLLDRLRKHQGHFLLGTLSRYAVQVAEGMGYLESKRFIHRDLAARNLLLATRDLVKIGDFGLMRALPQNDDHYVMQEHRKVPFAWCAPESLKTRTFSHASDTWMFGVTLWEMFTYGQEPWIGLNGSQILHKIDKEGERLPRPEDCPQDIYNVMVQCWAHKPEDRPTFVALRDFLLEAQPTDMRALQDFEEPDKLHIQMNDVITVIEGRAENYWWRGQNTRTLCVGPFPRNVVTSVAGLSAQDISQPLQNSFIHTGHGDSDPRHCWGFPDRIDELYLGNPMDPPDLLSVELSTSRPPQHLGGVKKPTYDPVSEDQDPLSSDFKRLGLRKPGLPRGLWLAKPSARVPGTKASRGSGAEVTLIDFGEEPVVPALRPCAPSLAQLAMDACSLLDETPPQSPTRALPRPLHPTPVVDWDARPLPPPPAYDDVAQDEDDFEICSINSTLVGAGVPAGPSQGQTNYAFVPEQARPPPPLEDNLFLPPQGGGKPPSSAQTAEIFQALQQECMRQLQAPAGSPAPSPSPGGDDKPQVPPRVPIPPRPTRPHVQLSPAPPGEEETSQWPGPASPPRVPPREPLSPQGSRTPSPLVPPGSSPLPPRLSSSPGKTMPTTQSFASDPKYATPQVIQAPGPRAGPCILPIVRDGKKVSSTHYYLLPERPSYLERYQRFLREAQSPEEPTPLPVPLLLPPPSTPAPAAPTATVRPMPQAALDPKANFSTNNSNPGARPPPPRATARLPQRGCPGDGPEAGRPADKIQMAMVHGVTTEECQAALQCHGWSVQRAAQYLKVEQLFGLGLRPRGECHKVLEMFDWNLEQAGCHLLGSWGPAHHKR

SMILES	inhibition at 1 µM (AurA)	inhibition at 10 µM [1]	inhibition at 1 µM (ACK)	Kinase inhibition % at indicated screening concentration: ABL or ARG (ABL or ARG; screening concentration 1.0 μM)	Kinase inhibition % at indicated screening concentration: AurB or AurC (AurB or AurC; screening concentration 1.0 μM)	inhibition at 1 µM (TAO2)	IC50 (ERK5)	inhibition at 1 µM (ERK5; [2])	Kinase inhibition % at indicated screening concentration: AMPKa1 or AMPKa2 (AMPKa1 or AMPKa2; screening concentration 1.0 μM)	inhibition at 1 µM (JAK1)	inhibition at 0.1 µM (AurA; screening concentration 0.1 μM)	inhibition at 0.1 µM (ACK; screening concentration 0.1 μM)	Kinase inhibition % at indicated screening concentration: ABL or ARG (ABL or ARG; screening concentration 0.1 μM)	Kinase inhibition % at indicated screening concentration: AurB or AurC (AurB or AurC; screening concentration 0.1 μM)	inhibition at 0.1 µM (TAO2; screening concentration 0.1 μM)	inhibition at 0.1 µM (ERK5; screening concentration 0.1 μM, read-out: Kinase inhibition % at indicated screening concentration: ERK5)	Kinase inhibition % at indicated screening concentration: AMPKa1 or AMPKa2 (AMPKa1 or AMPKa2; screening concentration 0.1 μM)	inhibition at 0.1 µM (JAK1; screening concentration 0.1 μM)
CCN(CC)CCNC(=O)c1cccc(Nc2cc3c(cn2)N(C)C(=O)c2ccccc2N3C)c1OC [Compound 29]	≤ 35%	< 70%	≤ 35%	E (E is ≦35%)	E (E is ≦35%)	≤ 35%	101 to 500 nM	50 to 75%	E (E is ≦35%)	≤ 35%	–	–	–	–	–	–	–	–
CN1C(=O)c2ccccc2N(C)c2cc(N[C@H]3CC[C@H](O)CC3)ncc21 [Compound 33, 3-((1r,4r)-4-hydroxycyclohexylamino)-5,11-dimethyl-5H-benzo[e]pyrido[3,4-b][1,4]diazepin-10(11H)-one]	≤ 35%	< 70%	≤ 35%	E (E is ≦35%)	E (E is ≦35%)	≤ 35%	101 to 500 nM	75 to 90%	E (E is ≦35%)	≤ 35%	–	–	–	–	–	–	–	–
CN1C(=O)c2ccccc2N(C)c2cc(N[C@H]3CC[C@H](Nc4ncccn4)CC3)ncc21 [Compound 47]	≤ 35%	< 70%	≤ 35%	E (E is ≦35%)	E (E is ≦35%)	≤ 35%	> 500 nM	35 to 50%	E (E is ≦35%)	≤ 35%	–	–	–	–	–	–	–	–
CCOc1cc(C(=O)NC(CO)CO)ccc1Nc1cc2c(cn1)N(C)C(=O)c1ccccc1N2C [Compound 48]	≤ 35%	< 70%	≤ 35%	E (E is ≦35%)	E (E is ≦35%)	≤ 35%	101 to 500 nM	50 to 75%	E (E is ≦35%)	≤ 35%	–	–	–	–	–	–	–	–
COc1c(Nc2cc3c(cn2)N(C)C(=O)c2ccccc2N3C)cccc1C(=O)N1CCNCC1 [Compound 78]	≤ 35%	70 to 85%	≤ 35%	E (E is ≦35%)	E (E is ≦35%)	≤ 35%	> 500 nM	50 to 75%	E (E is ≦35%)	≤ 35%	–	–	–	–	–	–	–	–
CN1C(=O)c2ccccc2N(C)c2cc(NC3CCC(N)CC3)ncc21 (stereo not shown) [Compound 79]	≤ 35%	< 70%	≤ 35%	E (E is ≦35%)	E (E is ≦35%)	≤ 35%	101 to 500 nM	75 to 90%	E (E is ≦35%)	≤ 35%	–	–	–	–	–	–	–	–
COc1cc(C(=O)N2CCC(N(C)C)C2)c(F)cc1Nc1cc2c(cn1)N(C)C(=O)c1ccccc1N2C (stereo not shown) [Compound 90]	–	< 70%	–	–	–	–	101 to 500 nM	–	–	–	≤ 35%	≤ 35%	E (E is ≦35%)	E (E is ≦35%)	≤ 35%	≤ 35%	E (E is ≦35%)	≤ 35%
